# Assay results as given in patent publication US20200316083A1, “ANTIBACTERIAL COMPOSITIONS” (WOCKHARDT LIMITED, priority 2016, published 2020).
# How the values were obtained:
# Type in all cases: cell-based
# [1] = system: K. pneumoniae B-88 producing metallo beta-lactamase enzymes; test: Time kill study against K. pneumoniae B-88; settings: for Effect on bacterial count (in words): summary of Table 1, alone or in combination
# Procedure: (§1) In general, the antibacterial activity of compositions according to invention was studied by performing time kill studies. In a typical time kill study, the freshly grown cultures were diluted to the required cell density (initial starting inoculum) in cation adjusted Muller Hinton broth medium (BD, USA). The antibacterial agents (either alone or in combination) at the required concentrations were added into the culture-containing medium. The samples were incubated under shaking condition (120 rpm) at 37° C. Enumeration of viable bacterial count was done every 2 hour by diluting in normal saline and plating on to the Tryptic Soya Agar plates (BD, USA). The plates were incubated for 24 hours to arrive at a viable bacterial count. The results are expressed in terms of log10 CFU/ml. In general, the decrease of 1 log10 CFU/ml corresponds to 90% killing of bacteria. Similarly, 2 log10 CFU/ml reductions indicates to 99% killing of bacteria and 3 log10 CFU/ml reductions is equal to 99.9% killing of bacteria.
# [2] = system: E. coli 7MP producing Class A and Class C beta-lactamase enzymes; test: Time kill study against E. coli 7MP; settings: for Effect on bacterial count (in words): alone or in combination
# Procedure: as §1
# [3] = system: A. baumanni 13301 producing Carbapenem hydrolysing beta-lactamase enzymes; test: Time kill study against A. baumanni 13301; settings: for Bacterial count (Log10 CFU/ml) 0 hours / Change in Log10 CFU/ml over 0 hour count after 24 hours / Bacterial count (Log10 CFU/ml) 2 hours / Bacterial count (Log10 CFU/ml) 4 hours / Bacterial count (Log10 CFU/ml) 6 hours / Bacterial count (Log10 CFU/ml) 8 hours / Bacterial count (Log10 CFU/ml) 24 hours: 4 mcg/ml alone; for Effect on bacterial count (in words): summary of Table 3, alone or in combination
# Procedure: as §1
compound,measurement,setting,value
O=C(NNC(=O)[C@@H]1CC[C@@H]2CN1C(=O)N2OS(=O)(=O)O)[C@@H]1CCCNC1 [Compound (C)],Bacterial count (Log10 CFU/ml) 0 hours,[1]; 2 mcg/ml alone,7.28 Log10 CFU/ml
same,Change in Log10 CFU/ml over 0 hour count after 24 hours,[1]; 2 mcg/ml alone,1.26 Log10 CFU/ml
same,Bacterial count (Log10 CFU/ml) 2 hours,[1]; 2 mcg/ml alone,7.60 Log10 CFU/ml
same,Bacterial count (Log10 CFU/ml) 4 hours,[1]; 2 mcg/ml alone,8.26 Log10 CFU/ml
same,Bacterial count (Log10 CFU/ml) 6 hours,[1]; 2 mcg/ml alone,8.18 Log10 CFU/ml
same,Bacterial count (Log10 CFU/ml) 24 hours,[1]; 2 mcg/ml alone,8.54 Log10 CFU/ml
same,Effect on bacterial count (in words),[1],could not reduce the bacterial count
same,Change in Log10 CFU/ml over 0 hour count after 24 hours,"[2]; Table 2, 2 mcg/ml alone",−3.54 Log10 CFU/ml
same,Bacterial count (Log10 CFU/ml) 2 hours,"[2]; Table 2, 2 mcg/ml alone",6.30 Log10 CFU/ml
same,Bacterial count (Log10 CFU/ml) 4 hours,"[2]; Table 2, 2 mcg/ml alone",4.93 Log10 CFU/ml
same,Bacterial count (Log10 CFU/ml) 6 hours,"[2]; Table 2, 2 mcg/ml alone",4.23 Log10 CFU/ml
same,Bacterial count (Log10 CFU/ml) 24 hours,"[2]; Table 2, 2 mcg/ml alone",3.54 Log10 CFU/ml
same,Effect on bacterial count (in words),[2]; summary of Table 2,could not reduce the bacterial count
same,Bacterial count (Log10 CFU/ml) 0 hours,[3],6.88 Log10 CFU/ml
same,Change in Log10 CFU/ml over 0 hour count after 24 hours,[3],2.35 Log10 CFU/ml
same,Bacterial count (Log10 CFU/ml) 2 hours,[3],8.13 Log10 CFU/ml
same,Bacterial count (Log10 CFU/ml) 4 hours,[3],8.85 Log10 CFU/ml
same,Bacterial count (Log10 CFU/ml) 6 hours,[3],9.19 Log10 CFU/ml
same,Bacterial count (Log10 CFU/ml) 8 hours,[3],9.02 Log10 CFU/ml
same,Bacterial count (Log10 CFU/ml) 24 hours,[3],9.23 Log10 CFU/ml
same,Effect on bacterial count (in words),[3],could not reduce the bacterial count
N#C[C@@H]1CC[C@@H]2CN1C(=O)N2OS(=O)(=O)O [Compound (B)],Bacterial count (Log10 CFU/ml) 0 hours,[1]; 2 mcg/ml alone,7.28 Log10 CFU/ml
same,Change in Log10 CFU/ml over 0 hour count after 24 hours,[1]; 2 mcg/ml alone,2.12 Log10 CFU/ml
same,Bacterial count (Log10 CFU/ml) 2 hours,[1]; 2 mcg/ml alone,8.27 Log10 CFU/ml
same,Bacterial count (Log10 CFU/ml) 4 hours,[1]; 2 mcg/ml alone,9.04 Log10 CFU/ml
same,Bacterial count (Log10 CFU/ml) 6 hours,[1]; 2 mcg/ml alone,9.18 Log10 CFU/ml
same,Bacterial count (Log10 CFU/ml) 24 hours,[1]; 2 mcg/ml alone,9.40 Log10 CFU/ml
same,Effect on bacterial count (in words),[1],could not reduce the bacterial count
same,Change in Log10 CFU/ml over 0 hour count after 24 hours,"[2]; Table 2, 4 mcg/ml alone",2.28 Log10 CFU/ml
same,Bacterial count (Log10 CFU/ml) 2 hours,"[2]; Table 2, 4 mcg/ml alone",7.90 Log10 CFU/ml
same,Bacterial count (Log10 CFU/ml) 4 hours,"[2]; Table 2, 4 mcg/ml alone",9.23 Log10 CFU/ml
same,Bacterial count (Log10 CFU/ml) 6 hours,"[2]; Table 2, 4 mcg/ml alone",9.30 Log10 CFU/ml
same,Bacterial count (Log10 CFU/ml) 24 hours,"[2]; Table 2, 4 mcg/ml alone",9.36 Log10 CFU/ml
same,Effect on bacterial count (in words),[2]; summary of Table 2,could not reduce the bacterial count
same,Bacterial count (Log10 CFU/ml) 0 hours,[3],6.88 Log10 CFU/ml
same,Change in Log10 CFU/ml over 0 hour count after 24 hours,[3],2.16 Log10 CFU/ml
same,Bacterial count (Log10 CFU/ml) 2 hours,[3],8.04 Log10 CFU/ml
same,Bacterial count (Log10 CFU/ml) 4 hours,[3],8.74 Log10 CFU/ml
same,Bacterial count (Log10 CFU/ml) 6 hours,[3],8.90 Log10 CFU/ml
same,Bacterial count (Log10 CFU/ml) 8 hours,[3],9.20 Log10 CFU/ml
same,Bacterial count (Log10 CFU/ml) 24 hours,[3],9.04 Log10 CFU/ml
same,Effect on bacterial count (in words),[3],could not reduce the bacterial count
"CC(C)(O/N=C(\C(=O)N[C@@H]1C(=O)N2C(C(=O)[O-])=C(C[N+]3(CCNC(=O)c4ccc(O)c(O)c4Cl)CCCC3)CS[C@H]12)c1csc(N)n1)C(=O)O [Compound of Formula (I), (6R,7R)-7-[(2Z)-2-(2-amino-1,3-thiazol-4-yl)-2-{[(2-carboxypropan-2-yl)oxy]imino}acetamido]-3-({1-[2-(2-chloro-3,4-dihydroxybenzamido)ethyl]pyrrolidin-1-ium-1-yl}methyl)-8-oxo-5-thia-1-azabicyclo[4.2.0]oct-2-ene-2-carboxylate]",Bacterial count (Log10 CFU/ml) 0 hours,[1]; 0.25 mcg/ml alone,7.28 Log10 CFU/ml
same,Bacterial count (Log10 CFU/ml) 0 hours,[1]; 0.5 mcg/ml alone,7.28 Log10 CFU/ml
same,Change in Log10 CFU/ml over 0 hour count after 24 hours,[1]; 0.25 mcg/ml alone,−0.47 Log10 CFU/ml
same,Change in Log10 CFU/ml over 0 hour count after 24 hours,[1]; 0.5 mcg/ml alone,−0.98 Log10 CFU/ml
same,Bacterial count (Log10 CFU/ml) 2 hours,[1]; 0.25 mcg/ml alone,6.74 Log10 CFU/ml
same,Bacterial count (Log10 CFU/ml) 2 hours,[1]; 0.5 mcg/ml alone,6.18 Log10 CFU/ml
same,Bacterial count (Log10 CFU/ml) 4 hours,[1]; 0.5 mcg/ml alone,5.85 Log10 CFU/ml
same,Bacterial count (Log10 CFU/ml) 6 hours,[1]; 0.25 mcg/ml alone,6.70 Log10 CFU/ml
same,Bacterial count (Log10 CFU/ml) 6 hours,[1]; 0.5 mcg/ml alone,6.30 Log10 CFU/ml
same,Bacterial count (Log10 CFU/ml) 24 hours,[1]; 0.25 mcg/ml alone,6.81 Log10 CFU/ml
same,Bacterial count (Log10 CFU/ml) 24 hours,[1]; 0.5 mcg/ml alone,6.30 Log10 CFU/ml
same,Effect on bacterial count (in words),[1],could not reduce the bacterial count
same,Change in Log10 CFU/ml over 0 hour count after 24 hours,"[2]; Table 2, 0.25 mcg/ml alone",2.12 Log10 CFU/ml
same,Change in Log10 CFU/ml over 0 hour count after 24 hours,"[2]; Table 2, 0.5 mcg/ml alone",2.12 Log10 CFU/ml
same,Bacterial count (Log10 CFU/ml) 2 hours,"[2]; Table 2, 0.25 mcg/ml alone",7.60 Log10 CFU/ml
same,Bacterial count (Log10 CFU/ml) 2 hours,"[2]; Table 2, 0.5 mcg/ml alone",7.18 Log10 CFU/ml
same,Bacterial count (Log10 CFU/ml) 4 hours,"[2]; Table 2, 0.25 mcg/ml alone",9.11 Log10 CFU/ml
same,Bacterial count (Log10 CFU/ml) 4 hours,"[2]; Table 2, 0.5 mcg/ml alone",7.74 Log10 CFU/ml
same,Bacterial count (Log10 CFU/ml) 6 hours,"[2]; Table 2, 0.25 mcg/ml alone",9.20 Log10 CFU/ml
same,Bacterial count (Log10 CFU/ml) 6 hours,"[2]; Table 2, 0.5 mcg/ml alone",9.18 Log10 CFU/ml
same,Bacterial count (Log10 CFU/ml) 24 hours,"[2]; Table 2, 0.25 mcg/ml alone",9.20 Log10 CFU/ml
same,Bacterial count (Log10 CFU/ml) 24 hours,"[2]; Table 2, 0.5 mcg/ml alone",9.20 Log10 CFU/ml
same,Change in Log10 CFU/ml over 0 hour count after 8 hours,"[2]; Table 5, 1 mcg/ml alone",1.57 Log10 CFU/ml
same,Bacterial count (Log10 CFU/ml) 2 hours,"[2]; Table 5, 1 mcg/ml alone",7.15 Log10 CFU/ml
same,Bacterial count (Log10 CFU/ml) 4 hours,"[2]; Table 5, 1 mcg/ml alone",6.60 Log10 CFU/ml
same,Bacterial count (Log10 CFU/ml) 6 hours,"[2]; Table 5, 1 mcg/ml alone",7.90 Log10 CFU/ml
same,Bacterial count (Log10 CFU/ml) 8 hours,"[2]; Table 5, 8 hours, 1 mcg/ml alone",8.65 Log10 CFU/ml
same,Effect on bacterial count (in words),[2]; summary of Table 2,could not reduce the bacterial count
same,Effect on bacterial count (in words),"[2]; summary of Table 5, throughout the duration of the study",did not reduce the bacterial count
same,Bacterial count (Log10 CFU/ml) 0 hours,[3],6.88 Log10 CFU/ml
same,Change in Log10 CFU/ml over 0 hour count after 24 hours,[3],2.22 Log10 CFU/ml
same,Bacterial count (Log10 CFU/ml) 2 hours,[3],4.85 Log10 CFU/ml
same,Bacterial count (Log10 CFU/ml) 4 hours,[3],4.02 Log10 CFU/ml
same,Bacterial count (Log10 CFU/ml) 6 hours,[3],5.18 Log10 CFU/ml
same,Bacterial count (Log10 CFU/ml) 8 hours,[3],7.5 Log10 CFU/ml
same,Bacterial count (Log10 CFU/ml) 24 hours,[3],9.10 Log10 CFU/ml
same,Effect on bacterial count (in words),[3],could not reduce the bacterial count
NCCONC(=O)[C@@H]1CC[C@@H]2CN1C(=O)N2OS(=O)(=O)O [Compound (E)],Bacterial count (Log10 CFU/ml) 0 hours,[1]; 2 mcg/ml alone,7.28 Log10 CFU/ml
same,Change in Log10 CFU/ml over 0 hour count after 24 hours,[1]; 2 mcg/ml alone,1.26 Log10 CFU/ml
same,Bacterial count (Log10 CFU/ml) 2 hours,[1]; 2 mcg/ml alone,7.60 Log10 CFU/ml
same,Bacterial count (Log10 CFU/ml) 4 hours,[1]; 2 mcg/ml alone,8.26 Log10 CFU/ml
same,Bacterial count (Log10 CFU/ml) 6 hours,[1]; 2 mcg/ml alone,8.18 Log10 CFU/ml
same,Bacterial count (Log10 CFU/ml) 24 hours,[1]; 2 mcg/ml alone,8.54 Log10 CFU/ml
same,Effect on bacterial count (in words),[1],could not reduce the bacterial count
same,Change in Log10 CFU/ml over 0 hour count after 24 hours,"[2]; Table 2, 2 mcg/ml alone",2.22 Log10 CFU/ml
same,Bacterial count (Log10 CFU/ml) 2 hours,"[2]; Table 2, 2 mcg/ml alone",8.02 Log10 CFU/ml
same,Bacterial count (Log10 CFU/ml) 4 hours,"[2]; Table 2, 2 mcg/ml alone",9.15 Log10 CFU/ml
same,Bacterial count (Log10 CFU/ml) 6 hours,"[2]; Table 2, 2 mcg/ml alone",9.11 Log10 CFU/ml
same,Bacterial count (Log10 CFU/ml) 24 hours,"[2]; Table 2, 2 mcg/ml alone",9.30 Log10 CFU/ml
same,Effect on bacterial count (in words),[2]; summary of Table 2,could not reduce the bacterial count
same,Bacterial count (Log10 CFU/ml) 0 hours,[3],6.88 Log10 CFU/ml
same,Change in Log10 CFU/ml over 0 hour count after 24 hours,[3],2.16 Log10 CFU/ml
same,Bacterial count (Log10 CFU/ml) 2 hours,[3],8.04 Log10 CFU/ml
same,Bacterial count (Log10 CFU/ml) 4 hours,[3],8.74 Log10 CFU/ml
same,Bacterial count (Log10 CFU/ml) 6 hours,[3],8.90 Log10 CFU/ml
same,Bacterial count (Log10 CFU/ml) 8 hours,[3],9.20 Log10 CFU/ml
same,Bacterial count (Log10 CFU/ml) 24 hours,[3],9.04 Log10 CFU/ml
same,Effect on bacterial count (in words),[3],could not reduce the bacterial count
